From US10507242B2, “Combination therapy for treating breast cancer” (Genzyme Corporation, priority 2010, dated 2019)
“Also recorded” adds a separate entry of the source.

Tests used:
[1] = test system: subcutaneous 4T1 tumors; experiment: Study 3 (09-4255): primary tumor growth in the SQ 4T1 model; format: in vivo, BALB/c mice; details: for effect on SQ 4T1 primary tumor growth: antibody IP 3x/week, ixabepilone 3 mg/kg IV every four days x3, capecitabine 360 mg/kg oral 14 days; for day cohort reached size endpoint (mean tumor volume 1500 mm^3): per cohort
From the text: The remaining 30 animals were included into a companion experiment to this study, looking for the effects of 1D11 on macrophage recruitment and activity (see below).
An entire cohort of mice was sacrificed when the average tumor volume for a single group within that cohort reached […] or greater.

[2] = test system: subcutaneous 4T1 tumors; experiment: Study 2 (09-3494): primary tumor growth in the SQ 4T1 model; format: in vivo, Balb/c mice; details: for effect on SQ 4T1 primary tumor growth / tumor volume: antibody 10 mg/kg IP 3x/week, ixabepilone 3 mg/kg IV Q4Dx3, capecitabine 360 mg/kg oral QDx14, to Day 23
From the text: Treatment groups, time points, and tissues were similar to the study described above.
For proper analysis of metastasis, all mice were sacrificed on study Day 23. […] The primary tumor was bisected, with one half frozen in OCT and the other half stored in RNALATER™ for qPCR analysis. The lungs were fixed in zinc-buffered formalin for enumeration of pulmonary mets and subsequent IHC analysis.

[3] = test system: subcutaneous 4T1 tumors; experiment: Study 1 (09-3493): primary tumor growth, survival and time to endpoint in the syngeneic SQ 4T1 model; details: for effect on SQ 4T1 primary tumor growth: antibody 10 mg/kg IP 3x/week, ixabepilone 6 mg/kg IV Q4Dx3, capecitabine 360 mg/kg oral QDx14
From the text: • Time points: Day 0: Investigators inject 50,000 4T1 cells+[…] ® subcutaneously in the right flank • Day 3: Investigators begin 2-3×/week tumor measurements • Day 6: DCM Staff begin antibody dosing IP 3×/week • DCM Staff begin ixabepilone dosing IV Q4D×3 • DCM Staff begin capecitabine dosing by oral gavage QD×14 • Animals were sacrificed when the primary tumors reached a volume of 2000 mm^3 or prior to the study takedown if they presented with moribund conditions (lack of grooming, labored breathing, cachexia, anorexia, or lethargy).
On Day 0, 150 twelve week-old female BALB/c mice each received subcutaneous injections of 50,000 4T1 cells in […] ® in the right flank. Tumor-bearing mice were routinely monitored and regular tumor measurements 2-3×/week were conducted beginning on Day 6. Tumor volume was determined using the following formula: Tumor Volume=Length×Width^2×0.52
Six days after tumor cell injection, when tumor volumes averaged 80 mm^3, the animals were size-matched and divided into twelve treatment groups of ten mice each. […] At this point investigators were blinded to treatment group designations and therapeutic administration was initiated. All mice received 10 mg/kg of either 1D11, 13C4 or antibody vehicle administered in 100 μl IP three times per week (Table 1). Specific cohorts of mice received additional treatments of ixabepilone (6 mg/kg in 200□1 IV Q4D×3), capecitabine (360 mg/kg in 100 μl by oral gavage QD×14) or both.
Mice were sacrificed once primary tumor volumes reached 2000 mm^3 or greater or if the tumors became ulcerated>20% of the tumor's surface area, or if the animals presented with moribund conditions (lack of grooming, labored breathing, cachexia, anorexia or lethargy). Upon sacrifice, gross necropsies were performed and tumors, lungs and other tissues bearing metastases were harvested.

[4] = Study 2 (09-3494): toxicity observations; format: in vivo, Balb/c mice; details: ixabepilone 3 mg/kg, capecitabine 360 mg/kg, antibody 10 mg/kg
[5] = Study 1 (09-3493): treatment-related adverse events; format: in vivo; details: ixabepilone 6 mg/kg, capecitabine 360 mg/kg, antibody 10 mg/kg
From the text: • Time points: Day 0: Investigators inject 50,000 4T1 cells+[…] ® subcutaneously in the right flank • Day 3: Investigators begin 2-3×/week tumor measurements • Day 6: DCM Staff begin antibody dosing IP 3×/week • DCM Staff begin ixabepilone dosing IV Q4D×3 • DCM Staff begin capecitabine dosing by oral gavage QD×14 • Animals were sacrificed when the primary tumors reached a volume of 2000 mm^3 or prior to the study takedown if they presented with moribund conditions (lack of grooming, labored breathing, cachexia, anorexia, or lethargy). After sacrifice, the primary tumor was halved with one half embedded in OCT, and the other placed in zinc buffered formalin. The lungs and any other tissues bearing metastases were harvested and stored in zinc buffered formalin for enumeration of lung mets and IHC. • Tissues: Primary tumors m OCT and zinc buffered formalin, lungs harvested in zinc buffered formalin for assessment of metastasis and subsequent IHC.
Mice were sacrificed once primary tumor volumes reached 2000 mm^3 or greater or if the tumors became ulcerated>20% of the tumor's surface area, or if the animals presented with moribund conditions (lack of grooming, labored breathing, cachexia, anorexia or lethargy). Upon sacrifice, gross necropsies were performed and tumors, lungs and other tissues bearing metastases were harvested. […]

[6] = test system: 4T1 experimental metastases; experiment: 4T1 model of experimental metastasis (intracardiac injection); format: in vivo, mouse; details: 4T1 cells injected into left ventricle of the heart
From the text: 1D11 was combined with paclitaxel in both a xenograft (MDA-MB-231) breast cancer model and the syngeneic 4T1 model of breast cancer. […] The MDA-MB-231 and 4T1 models were also used to test combinatorial therapies with 1D11 and the platinum compounds cisplatin or carboplatin.

| SMILES | effect on SQ 4T1 primary tumor growth [1] | day cohort reached size endpoint (mean tumor volume 1500 mm^3) [1] | average size of the tumors at the time of study take down ([2]; Day 23, average of cohort (vehicle, 13C4 or 1D11 plus the chemotherapeutic)) | effect on SQ 4T1 primary tumor growth / tumor volume [2] | effect on SQ 4T1 primary tumor growth [3] | toxicity during dosing [4] | survival ([3]; same dosing, sacrifice at tumor volume 2000 mm^3 or moribund) | treatment-related toxicities [5] | inhibition of metastases [6] |
| --- | --- | --- | --- | --- | --- | --- | --- | --- | --- |
| CCCCCOC(=O)Nc1nc(=O)n([C@@H]2O[C@H](C)[C@@H](O)[C@H]2O)cc1F [capecitabine] | very modest tumor growth inhibition; also recorded: Inhibition of tumor growth; also recorded: inhibited 4T1 tumor growth slightly | 27 study day | ~700 mm^3 | trend towards inhibited growth of the primary tumors; also recorded: Inhibition of tumor growth | did inhibit tumor growth; also recorded: Inhibition of tumor growth; also recorded: inhibited 4T1 tumor growth but was not as efficacious as ixabepilone | no toxicity issues observed |  |  |  |
| C/C(=C\c1csc(C)n1)[C@@H]1C[C@@H]2O[C@]2(C)CCC[C@H](C)[C@H](O)[C@@H](C)C(=O)C(C)(C)[C@@H](O)CC(=O)N1 [ixabepilone] | most efficacious at inhibiting 4T1 tumor growth as a monotherapy; also recorded: Inhibition of tumor growth | 29 study day |  | significant reduction in tumor volume; also recorded: Inhibition of tumor growth | most efficacious at inhibiting 4T1 tumor growth compared to either antibody therapy or capecitabine; also recorded: Inhibition of tumor growth | no toxicity issues observed; also recorded: no animals in the study displayed signs of toxicity | greater than that of either the antibody or the capecitabine cohorts | some peripheral neuropathy |  |
| N.N.[Cl][Pt][Cl] [cisplatin] |  |  |  |  |  |  |  |  | able to inhibit metastases particularly to the bone |
